Legend:
[1] = system: transient focal cerebral ischemia induced by Middle Cerebral Artery Occlusion (MCAO); test: Animal cerebral infarct assay: two-hour Middle Cerebral Artery Occlusion (MCAO) with reperfusion; assay type: in vivo, rat; details: intraventricular (i.c.v.), 0.0067 mg/kg to 0.67 mg/kg
Text: This assay is used to assess the efficacy of the test agents in protecting the brain against necrosis following cerebral ischemia induced in rats. Middle Cerebral Artery Occlusion (MCAO) is a widely used technique to induce transient focal cerebral ischemia in animal models. […] Furthermore, this model accurately represents the involvement of middle cerebral artery (MCA), the most affected vessel in human stroke, and also allows reperfusion as it happens in humans. MCAO by a two-hour occlusion is used to produce the maximum size of cortical infarction without increased mortality at twenty-four hours. Male Wistar rats (Hadan, Ind.) weighing 300-350 g were allowed free access to water and commercial rodent diet under standard laboratory conditions. The room temperature was maintained at 20-23° C. and room illumination was on a 12/12-hour light/dark cycle. The rats were acclimatized to the laboratory environment 5 to 7 days prior to the study. Before surgery, the animals were fasted overnight, but had free access to water. The rats were anesthetized with 3.0% isoflurane (Aerrane, Front Dodge, Iowa) in […] and the animal's neck was shaved and sterilized before the operation. The animals were subjected to two hours MCAO using a modified intraluminal filament technique. A midline incision on the ventral part of the neck was made to expose external and internal carotid arteries. The right external and common carotid arteries were ligated by a suture (silk 5/0, Carlisle Laboratories, Farmers Branch, Tex.) and the right internal artery was temporarily ligated by a microvascular clip (Fine Science Tool Inc., Foster City, Calif.). A small incision was made in the common carotid artery and a nylon filament, its tip rounded by heating, prepared from a fishing line (Stren Fishing Lines, Wilmington, Del.) was inserted from the right common carotid artery. The filament was advanced into the internal carotid artery 18-20 mm from the point of bifurcation of internal and external arteries and a suture was tightly ligated around the filament. Two hours post occlusion, the animals were re-anesthetized to allow reperfusion for the remaining of the experiment by removal of the filament. The anesthetized animal were placed on a stereotaxic apparatus (Harvard Apparatus, S. Natick, Mass.). Anesthesia was maintained by inhalation of 3.0% isoflurane in […] throughout the entire procedure. The scalp was shaved and sterilized prior to surgery. A midline sagittal incision about 3 cm long was made slightly behind the eyes to expose the skull. The skull was scraped with a rounded end spatula to remove periosteal connective tissue. A bur hole was placed 1.5 mm lateral, 1 mm posterior to the left of the bregma to mark the left lateral ventricle. A brain infusion cannula (ALZET CO. Palo Alto, Calif.) was inserted 4 mm deep into the hole. The desired depth was adjusted by attaching spacers to the cannula. The cannula was attached to a 4-cm silastic catheter (Helix Medical Inc.) fixed in place with dental cement (Ketac-cement, Norristown, Pa.). The catheter was either attached to a primed osmotic pump placed subcutaneously between the shoulder blades for permanent infusion or to a syringe for a short infusion. Anesthesia was maintained by inhalation of 3.0% isoflurane in […] throughout the entire procedure. The exterior site of the right femoral vein was shaved and sterilized prior to surgery. A 3 cm incision was made in the right groin region and the femoral vein was isolated. A small incision was made on the femoral vein temporarily ligated with a microvascular clip to introduce and advance a polyethylene (PE-50) catheter (Becton. Dickinson and Co., Sparks, Md.). The catheter was secured in place with suture (silk 5/0, Carlisle Laboratories, Farmers Branch, Tex.). The other end of the catheter was attached to a syringe filled with the heparinized saline for the bolus injection. […]

[2] = system: myocardial infarction by left coronary artery occlusion; test: Model of myocardial infarction: left coronary ligation (Example 5); assay type: in vivo, rat; details: dose of 0.67 mg/kg
Protocol: Male Sprague-Dawley weighing 250-320 g are allowed free access to water and commercial rodent diet under standard laboratory conditions. Room temperature is maintained at 20-23° C. and room illumination is on a 12/12-hour light/dark cycle. Animals are acclimatized to the laboratory environment 5 to 7 days prior to the study and are fasted overnight prior to surgery.
Rats are anaesthetized with Urethane (1.2-1.5 gm/kg). Core body temperature is maintained at 37° C. by using a heating blanket. The surgical area is shaved, and a ventral midline incision is made to expose the trachea and jugular area. A catheter (PE50) is placed in the jugular for administration of compound and maintenance anesthesia. The trachea is incised and a 14-16-gauge modified intravenous catheter is inserted and tied in place as an endotracheal tube. The animal is placed in right lateral recumbency and initially placed on a Harvard ventilator with a tidal volume of 5-10 ml/kg. 100% O2 is delivered to the animals by the ventilator. ECG electrodes are placed to record a standard Lead II ECG. The surgical site is cleaned with alcohol swab, and a skin incision is made over rib cage over the 4th-5th intercostal space. […] The ECG is monitored for S-T changes indicative of ischemia. […] The ECG is monitored for the first 10 minutes of reperfusion. […]

bromo-quercetin
reductions of infarct volumes [1]: greater than 50% | infarct size [2]: reduce infarct size
